PMC6027297, “A Short Peptide Inhibitor as an Activity-Based Probe for Matriptase-2” (Pharmaceuticals, 2018)
Residues, ends and D or L forms follow the SMILES beside them. *: point of attachment. Biotin = O=C1N[C@H]2[C@H](CS[C@H]2CCCCC(=O)*)N1; CH2Cl = ClC*

Assays:
matriptase-2 (MT-2) [1] = biological target: T1, matriptase-2 (MT-2) (Homo sapiens, UniProt Q8IU80); test: MT-2 activity in supernatant of transfected HEK cells (fluorogenic substrate Boc-Gln-Ala-Arg-AMC); format: biochemical; conditions: probe 25–100 nM, Boc-Gln-Ala-Arg-AMC 40 µM, NaCl 150 mM, TRIS 50 mM, pH 8.0, 10 µg supernatant, 37 °C, 50 min, ex 340 nm, em 460 nm, non-linear regression of progress curves
T1 construct: This fragment consists of the catalytic and the three LDLRA domains of MT-2; made in house; host or cells: stably transfected HEK cells; concentrated culture supernatant, not purified
T1 sequence (Q8IU80 577-811 limits assumed): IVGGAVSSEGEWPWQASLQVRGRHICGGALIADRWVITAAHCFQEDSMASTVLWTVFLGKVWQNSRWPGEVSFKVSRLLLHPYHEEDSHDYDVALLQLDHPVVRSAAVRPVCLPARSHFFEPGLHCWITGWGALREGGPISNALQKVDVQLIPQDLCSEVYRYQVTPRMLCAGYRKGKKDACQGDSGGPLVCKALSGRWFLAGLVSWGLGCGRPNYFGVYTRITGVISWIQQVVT
T1 sequence (Q8IU80 438-576 partner limits assumed): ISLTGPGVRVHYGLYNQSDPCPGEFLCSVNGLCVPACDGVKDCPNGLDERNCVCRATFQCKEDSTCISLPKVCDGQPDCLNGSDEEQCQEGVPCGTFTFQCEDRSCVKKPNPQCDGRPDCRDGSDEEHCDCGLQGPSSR
Experimental: We used stably transfected human embryonic kidney (HEK) cells as the source for MT-2 [14]. […] Initially, the inhibitory potency of biotin-RQRR-CMK against MT-2 was assessed. For this purpose, we determined MT-2 activity in the supernatant of transfected HEK cells using a tripeptidic fluorogenic substrate. Probe concentrations of 25 nM to 100 nM were applied. Values kobs were obtained from non-linear regression of the progress curves of the supernatant experiment using the equation [P] = v0 (1 − e^−kobs t)/kobs + d(1) where [P] is the product concentration, v0 is the initial rate and d is the offset. […]
(§1) Stably transfected human embryonic kidney (HEK) cells expressing MT-2 or an empty vector construct were cultivated in Dulbecco’s Modified Eagle’s Medium (DMEM) containing fetal bovine serum (FBS) as well as penicillin and streptadivin in a concentration of […] at 37 °C. […] The protein concentration of the obtained protein mixture was determined by absorption measurements using Roti-Nanoquant Bradford solution.
Kinetic measurements were performed on a Fluostar Optima plate reader (BMG Lab Tech, Offenburg, Germany) in 96 well plates. […]

matriptase-2 (MT-2) [2] = biological target: T2, matriptase-2 (MT-2) (Homo sapiens, UniProt Q8IU80); test: MT-2 activity on the surface of transfected HEK cells; format: cell-based
T2 construct: expressed in transfected cells; host or cells: stably transfected HEK cells
T2 sequence (Q8IU80 1-802 isoform Q8IU80-1): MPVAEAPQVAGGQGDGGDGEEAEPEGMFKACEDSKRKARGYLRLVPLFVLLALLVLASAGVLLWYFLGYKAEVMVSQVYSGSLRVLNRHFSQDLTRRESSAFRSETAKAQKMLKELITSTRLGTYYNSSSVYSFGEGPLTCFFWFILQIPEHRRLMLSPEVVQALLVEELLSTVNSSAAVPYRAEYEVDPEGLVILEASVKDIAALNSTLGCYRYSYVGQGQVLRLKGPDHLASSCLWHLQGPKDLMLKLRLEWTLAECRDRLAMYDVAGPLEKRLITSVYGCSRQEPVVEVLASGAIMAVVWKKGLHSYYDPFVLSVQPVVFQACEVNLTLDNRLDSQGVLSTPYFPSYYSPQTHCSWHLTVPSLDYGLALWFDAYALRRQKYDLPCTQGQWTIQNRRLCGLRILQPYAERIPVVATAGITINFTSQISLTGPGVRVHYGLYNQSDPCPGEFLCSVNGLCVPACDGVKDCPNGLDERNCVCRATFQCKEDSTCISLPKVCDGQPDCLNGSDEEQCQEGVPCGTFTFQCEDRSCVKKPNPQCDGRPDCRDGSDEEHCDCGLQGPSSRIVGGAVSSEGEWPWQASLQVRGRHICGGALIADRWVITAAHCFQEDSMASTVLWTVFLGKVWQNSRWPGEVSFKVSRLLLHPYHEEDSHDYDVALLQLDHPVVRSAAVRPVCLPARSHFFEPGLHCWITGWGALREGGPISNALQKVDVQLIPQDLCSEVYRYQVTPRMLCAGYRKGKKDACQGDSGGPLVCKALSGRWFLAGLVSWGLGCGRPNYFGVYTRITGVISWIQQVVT
Experimental: To further investigate the inhibitory potency of the probe in an in vitro approach, MT-2 activity was measured on the surface of stably transfected HEK cells expressing MT-2. Different probe concentrations were applied (Figure 3).
To measure MT-2 activity at the cell surface, HEK cells were seeded in 96 well cell culture plates and cultivated at 37 °C in DMEM medium until a confluence of approximately 70% was reached. After two washing steps with PBS and two further days of incubation in Opti-MEM medium at 37 °C, the culture medium was removed and the cells were washed two times with PBS. MT-2 assay buffer, biotin-RQRR-CMK and DMSO were then directly added to the cells before the reaction was started by adding substrate solution in a final concentration of 40 µM to each well. The conversion of the substrate by MT-2 was followed over a time of 50 min at 37 °C.

matriptase-2 (MT-2) [3] = test: Western blot detection of biotin-RQRR-CMK-labeled MT-2 in HEK-cell supernatant (Strep-Tactin/AP); conditions: 30 µg HEK-MT-2 supernatant, 50 µM aprotinin for 2 h before probe (5 µM, 30 min)
Experimental: Similar to antibody staining addressing the myc tag, the biotin tag which was chemically introduced by biotin-RQRR-CMK was employed for the detection of MT-2 after western blotting. For this purpose, 30 µg of HEK-mock or HEK-MT-2 supernatants were incubated with or without biotin-RQRR-CMK prior to SDS-PAGE. After transfer to a nitrocellulose membrane, the blot was incubated with a conjugate of Strep-Tactin with alkaline phosphatase (AP). […] This band was only observed in the supernatant of HEK cells expressing active MT-2 that was treated with the probe.
(§2) To confirm that biotin-RQRR-CMK binds to the active site of MT-2, we added aprotinin to the supernatants of HEK-MT-2 cells. Treatment with aprotinin or DMSO was carried out 2 h prior to probe treatment. […] MT-2 was present in the supernatant of transfected HEK cells incubated with the probe and/or aprotinin (Figure 6: panel a).
as §1, with “solution. […]” for “solution.”

MT-2 = conditions: active-site directed inhibitor of serine proteases; ref [1],[38]; cited from earlier work
Experimental: as §2

| kinac/Ki (second-order rate constant of inactivation) (matriptase-2 (MT-2) [1]) | Ki (matriptase-2 (MT-2) [2]; surface of stably transfected HEK cells, probe 100–600 nM, substrate 40 µM, MT-2 assay buffer, 37 °C, 50 min, linear regression of progress curves, equation (3)) [nM] | Ki (in words) (matriptase-2 (MT-2) [2]; surface of transfected HEK cells) | Molecule | protection of MT-2 from labeling by biotin-RQRR-CMK (matriptase-2 (MT-2) [3]) | inhibition of MT-2 (MT-2) |
| --- | --- | --- | --- | --- | --- |
| 10,800 M^−1 s^−1 | 89 | two-digit nanomolar Ki value | N=C(N)NCCC[C@H](NC(=O)[C@H](CCCNC(=N)N)NC(=O)[C@H](CCC(N)=O)NC(=O)[C@H](CCCNC(=N)N)NC(=O)CCCC[C@@H]1SC[C@@H]2NC(=O)N[C@@H]21)C(=O)CCl [biotin-RQRR-CMK] (Biotin-RQRR-CH2Cl) |  |  |
|  |  |  | aprotinin | labeled MT-2 fragment which was missing in HEK-MT-2 supernatants after aprotinin treatment | has been shown to inhibit MT-2 |
